According to ChEMBL document CHEMBL4742403, “Tricyclic protein kinase inhibitors for promoting liver regeneration or reducing or preventing hepatocyte death” (2019):

What was measured:
Homo sapiens [1] = species on record: Homo sapiens; experiment: Selectivity index, ratio of inhibition of B-raf (unknown origin) to inhibition of partial length human MKK4 (S84 to D399 residues) expressed in mammalian expression system assessed as residual percent of control binding at 100 nM relative to control
Homo sapiens [2] = species on record: Homo sapiens; experiment: Selectivity index, ratio of inhibition of full length human MKK7 (M1 to R419 residues) expressed in mammalian expression system assessed as residual percent of control binding at 100 nM relative to control to inhibition of partial length human MKK4 (S84 to D399 residues) expressed in mammalian expression system assessed as residual percent of control binding at 100 nM relative to control
Homo sapiens [3] = species on record: Homo sapiens; experiment: Selectivity index, ratio of inhibition of full length human JNK1 (M1 to Q384 residues) expressed in mammalian expression system assessed as residual percent of control binding at 100 nM relative to control to inhibition of partial length human MKK4 (S84 to D399 residues) expressed in mammalian expression system assessed as residual percent of control binding at 100 nM relative to control

Measured: Selectivity ratio

CCCS(=O)(=O)Nc1ccc(F)c(C(=O)c2ccc3[nH]c4ncc(-c5ccncc5)cc4c3c2)c1F
> 30: all assays above

CCCS(=O)(=O)Nc1ccc(F)c(C(=O)c2ccc3[nH]c4ncc(-c5ccc(S(=O)(=O)NCC(O)CO)nc5)cc4c3c2)c1F (configuration not stated)
> 30: all assays above

CCCS(=O)(=O)Nc1ccc(F)c(C(=O)c2ccc3[nH]c4ncc(-c5ccc(OCC(O)CO)cc5)cc4c3c2)c1F (configuration not stated)
> 30: all assays above

CCS(=O)(=O)Nc1ccc(F)c(C(=O)c2ccc3[nH]c4ncc(-c5ccc(S(N)(=O)=O)cc5)cc4c3c2)c1F
> 30: all assays above

CCCS(=O)(=O)Nc1ccc(F)c(C(=O)c2ccc3[nH]c4ncc(Cl)cc4c3c2)c1F
> 30: all assays above

CCCS(=O)(=O)Nc1ccc(F)c(C(=O)c2ccc3[nH]c4ncc(-c5ccc(C(=O)O)cc5)cc4c3c2)c1F
> 30: all assays above

CCCS(=O)(=O)Nc1ccc(F)c(C(=O)c2ccc3[nH]c4ncc(-c5ccc(C(=O)NCC(O)CO)nc5)cc4c3c2)c1F (configuration not stated)
> 30: all assays above

CCCS(=O)(=O)Nc1ccc(F)c(C(=O)c2ccc3[nH]c4ncc(-c5ccc(C(N)=O)cc5)cc4c3c2)c1F
> 30: all assays above

CS(=O)(=O)Nc1c(F)ccc(C(=O)c2ccc3[nH]c4ncc(Cl)cc4c3c2)c1F
> 30: all assays above

CCCS(=O)(=O)Nc1ccc(F)c(C(=O)c2ccc3[nH]c4ncc(-c5ccc(S(N)(=O)=O)cc5)cc4c3c2)c1F
> 30: all assays above

CCCS(=O)(=O)Nc1ccc(F)c(C(=O)c2ccc3[nH]c4ncc(-c5ccc(N)nc5)cc4c3c2)c1F
> 30: all assays above

CCCS(=O)(=O)Nc1ccc(F)c(C(=O)c2ccc3[nH]c4ncc(-c5ccc(-c6nnn[nH]6)cc5)cc4c3c2)c1F
> 30: all assays above

CS(=O)(=O)Nc1ccc(F)c(C(=O)c2ccc3[nH]c4ncc(-c5ccc(S(N)(=O)=O)cc5)cc4c3c2)c1F
> 30: all assays above

CCCS(=O)(=O)Nc1cccc(C(=O)c2ccc3[nH]c4ncc(Cl)cc4c3c2)c1F
> 30: all assays above
